Columns and labels:
Format in all cases: in vivo, mouse
TMEM [1] = assay: Intravital imaging of TMEM-dependent vascular permeability (bursting)
Source text: Paclitaxel Induces TMEM-Dependent Vascular Permeability in Breast Tumors—Given that chemotherapy treatment may affect blood vessel dynamics by inducing angiogenesis (9, 11-13, 35-37), intravital imaging (IVI) (FIG. 2A) was used to investigate whether neoadjuvant paclitaxel induces TMEM-dependent (localized) or TMEM-independent (more universal) blood vessel leakage. […] As also reported previously (1), we never observed any bursting incidents without juxtaposition to a clearly defined TMEM site. Bursting was documented by the accumulation of Dextran-TMR signal over time around an active TMEM site, and no such accumulation was observed away from TMEM (FIGS. 2B-C). The entire time-lapse of these was recorded in videos, respectively. The intensity values from all TMEM-mediated bursting incidents observed in paclitaxel-treated mice were averaged and plotted over the entire time of bursting activity (FIG. 2D), which confirmed the transient nature of paclitaxel-induced TMEM-dependent vascular permeability.
Drug Administration. The following drugs were administered in mice: Paclitaxel was given at 10 mg/Kg i.v every 5 days for 2 weeks; Doxorubicin was given at 5 mg/Kg i.v. every 5 days for 2 weeks; Cyclophosphamide was given at 120 mg/Kg i.p. only once; Rebastinib was given at 10 mg/Kg per os, every 3-4 days for 4 weeks.
Intravital Imaging. Intravital imaging was performed using a custom-built two-laser multiphoton microscope, as previously described (57). Mice were anesthetized using 0.75-2.5% isofluorane, depilated. A skin flap procedure, previously developed (58), was performed by exposing the 4th or 5th mammary fat pad. Given the early stage of carcinoma and small tumor size, this necessitated the development of a custom fixturing technique where the exposed tissue was stabilized by affixing the edge of a 10-mm window fitted with an 8-mm clear aperture respectively with cyanoacrylate. The mouse was then placed on a fixturing plate, fitted to the respective window, on the microscope xy stage and imaging was performed in the center of the window away from the glue. The animal was placed in a heated chamber, AirTherm ATX forced air heater (WPI Inc.), maintained at physiologic temperature during the course of imaging, and supplemented with 50-100 uL of PBS per hour via the tail vein catheter. As previously described (1), three milligrams of 155-kDa TMR-dextran (Sigma) were administered via the catheter to visualize the vasculature. All images were reconstructed and analyzed in ImageJ (59), as described in Supplementary Methods.

Mena = Mena isoform gene expression by qRT-PCR on FFPE tumors
Source text: To test this hypothesis, qRT-PCR analysis was first performed for total Mena (panMena), Mena11a and Mena^INV on formalin-fixed paraffin-embedded (FFPE) tumors from all mouse models. […] As shown in the specific Mena^INV IF, the pattern of Mena^INV expression in PyMT mice was heterogeneous (FIG. 4F), consistent with previous observations (40). […] In addition, there was an inverse correlation for the anti-metastatic Mena11a (p<0.01, […]).
Gene Expression Analysis. Total RNA was extracted from formalin-fixed paraffin-embedded (FFPE) tissues using deparaffinization solution (Qiagen) and RNeasy FFPE Kit (Qiagen), followed by DNase treatment. An RT-PCR method SYBR Green (Qiagen) was used to measure expression levels of total Mena (PanMena), as well as of the specific Mena isoforms, Mena11a and Mena^INV, as described (29), with slight modifications, as detailed in Supplementary Methods. Mena^Calc expression has been previously defined as the expression level of all Mena isoforms combined after subtraction of Mena 11a from PanMena (2).

TMEM [2] = assay: Extravascular Dextran-TMR in fixed tumor sections (multichannel IF)
Protocol: In a second independent validation experiment, a group of vehicle- or paclitaxel-treated mice received an i.v injection of Dextran-TMR for 1 hour and then sacrificed and evaluated for vascular permeability in fixed tumor sections (FIG. 2A). Multichannel IF staining included endomucin as a blood vessel exclusion mask and a specific anti-TMR antibody for assessing dextran leakage. A corresponding TMEM IHC staining section was co-aligned to evaluate the presence/absence of TMEM in each vascular profile that presented with vascular leakage. […] For quantification purposes, ˜20-30 vascular profiles were selected for each mouse, based on tissue size, degree of vascularization and quality of endomucin staining. […]
Paclitaxel Increases Metastatic Dissemination of Breast Tumors—To assess if paclitaxel treatment promotes tumor cell dissemination and metastatic incidence, we first quantified and compared incidence and frequency of bursting in mice treated with vehicle or paclitaxel, using IVI (FIGS. 3A-C). […] The same conclusions were reached when frequency of bursting was normalized to the number of TMEM sites, as measured in each field. […] In addition to IVI, extravascular dextran area was quantified and compared as % normalized to the blood vessel area in fixed tumors of mice treated with either vehicle or paclitaxel, using multichannel IF. […]

Q: For CC(=O)O[C@H]1C(=O)[C@@]2(C)[C@H]([C@H](OC(=O)c3ccccc3)[C@]3(O)C[C@H](OC(=O)[C@H](O)[C@@H](NC(=O)c4ccccc4)c4ccccc4)C(C)=C1C3(C)C)[C@]1(OC(C)=O)CO[C@@H]1C[C@@H]2O [paclitaxel], which “generalized blood vessel leakage of 155-KDa dextran into the extravascular space” value (TMEM [1]; intravital imaging, paclitaxel-treated mice) is on record?
A: The value was “did not demonstrate generalized blood vessel leakage”.

Q: What about the frequency of bursting (TMEM [1]; vs vehicle control) of the same compound?
A: The frequency of bursting was “increased”.

Q: What about the “incidence of bursting (at least 1 bursting event in a ~4.5-hour imaging session)” value (TMEM [1]; vs vehicle control) of the same compound?
A: Its value is “increased”.

Q: And the “expression of Mena11a” value (Mena)?
A: Its value is “not that of the anti-metastatic Mena11a”.

Q: And the “expression of Mena^Calc” value (Mena; p<0.01)?
A: The value was “significantly increased”.

Q: And the “expression of Mena^INV” value (Mena; p<0.01)?
A: The value was “significantly increased”.

Q: And the “expression of PanMena” value (Mena; p<0.01)?
A: The value was “significantly increased”.

Q: What about the “vascular profiles with extravascular dextran co-localized with at least 1 TMEM” value (TMEM [2]; fixed tumor sections, Dextran-TMR i.v. for 1 hour) of the same compound?
A: Its value is 96-98%.

Q: What about the “extravascular dextran area normalized to blood vessel area, fold vs vehicle-treated” value (TMEM [2]; fixed tumors, p<0.05) of the same compound?
A: Its value is 3 fold.
